The text below walks through data of BindingDB's records for doi:10.1016/j.bmcl.2009.01.008 (Pfizer, 2009).

What is called IC50 is the concentration that inhibits the measured activity by half.

Structures are written as SMILES. Where “and” joins values, the source holds several entries; their conditions need not be identical. Equal values may be shown once.

The nature of the test: Antagonist activity at human recombinant CCR5 expressed in human HeLa-P4 cells assessed as inhibition of human HeLa-P4 cells binding to HIV1 gp160 expressing CHO cells by cell-cell fusion assay.
On to `Cc1nnc(C(C)C)n1C1CCN(C(C)C[C@H](NC(=O)N2CCN(C)CC2)c2ccccc2)CC1` (mixture of isomers) [(+/-)-N-((1S)-3-(4-(3-isopropyl-5-methyl-4H-1,2,4-triazol-4-yl)piperidin-1-yl)-1-phenylbutyl)-4-methylpiperazine-1-carboxamide], for which the IC50 is 187 nM.
In the case of `Cc1nnc(C(C)C)n1C1CCN(C(C)C[C@H](NC(=O)C2CCCCC2)c2ccccc2)CC1` (mixture of isomers) [(+/-)-N-((1S)-3-(4-(3-isopropyl-5-methyl-4H-1,2,4-triazol-4-yl)piperidin-1-yl)-1-phenylbutyl)cyclohexanecarboxamide], the IC50 was determined as 0.513 nM.
To `Cc1nnc(C(C)C)n1C1CCN(C(C)C[C@H](NC(=O)C2CCOCC2)c2ccccc2)CC1` (mixture of isomers) [(+/-)-N-((1S)-3-(4-(3-isopropyl-5-methyl-4H-1,2,4-triazol-4-yl)piperidin-1-yl)-1-phenylbutyl)tetrahydro-2H-pyran-4-carboxamide] belongs 164 nM; to `Cc1nnc(C(C)C)n1C1CCN([C@H](C)C[C@H](NC(=O)C2CC(F)(F)C2)c2ccccc2)CC1` [3,3-difluoro-N-((1S,3R)-3-(4-(3-isopropyl-5-methyl-4H-1,2,4-triazol-4-yl)piperidin-1-yl)-1-phenylbutyl)cyclobutanecarboxamide], 0.48 nM.
Regarding `Cc1nnc(C(C)C)n1C1CCN(C(C)C[C@H](NC(=O)CC(F)(F)F)c2ccccc2)CC1` (mixture of isomers) [(+/-)-3,3,3-trifluoro-N-((1S)-3-(4-(3-isopropyl-5-methyl-4H-1,2,4-triazol-4-yl)piperidin-1-yl)-1-phenylbutyl)propanamide], the IC50 is 85.3 nM.
Take `CC(=O)N[C@@H](CC(C)N1CCC(n2c(C)nnc2C(C)C)CC1)c1ccccc1` (mixture of isomers) [(+/-)-N-((1S)-3-(4-(3-isopropyl-5-methyl-4H-1,2,4-triazol-4-yl)piperidin-1-yl)-1-phenylbutyl)acetamide]: the IC50 turned out to be 89.2 nM.
For `Cc1nnc(C(C)C)n1C1CCN(C(C)C[C@H](NC(=O)CC2CC2)c2ccccc2)CC1` (mixture of isomers) [(+/-)-2-cyclopropyl-N-((1S)-3-(4-(3-isopropyl-5-methyl-4H-1,2,4-triazol-4-yl)piperidin-1-yl)-1-phenylbutyl)acetamide], the IC50 came out at 3.16 nM.
Turning to `Cc1nnc(C(C)C)n1C1CCN(C(C)C[C@H](NC(=O)C2CCCC2)c2ccccc2)CC1` (mixture of isomers) [(+/-)-N-((1S)-3-(4-(3-isopropyl-5-methyl-4H-1,2,4-triazol-4-yl)piperidin-1-yl)-1-phenylbutyl)cyclopentanecarboxamide], the IC50 was determined as 0.137 nM.
On to `Cc1nc(C(C)C)n(C2CC3CCC(C2)N3CC[C@H](NC(=O)C2CCC(F)(F)CC2)c2ccccc2)n1` (stereo partly drawn) [4,4-difluoro-N-((1S)-3-(3-(5-isopropyl-3-methyl-1H-1,2,4-triazol-1-yl)-8-azabicyclo[3.2.1]octan-8-yl)-1-phenylpropyl)cyclohexanecarboxamide], for which the IC50 worked out at 1.4 nM.
On to `Cc1nnc(C(C)C)n1C1CCN(C(C)C[C@H](NC(=O)C2CC(F)(F)C2)c2ccccc2)CC1` (mixture of isomers), for which the IC50 is 1.3 nM and 0.38 nM.
To `Cc1nnc(C(C)C)n1C1CCN(C(C)C[C@H](NC(=O)C2CC[S+]([O-])CC2)c2ccccc2)CC1` (mixture of isomers) [(+/-)-1-Oxo-hexahydro-1lambda*4*-thiopyran-4-carboxylic acid{(S)-3-[4-(3-isopropyl-5-methyl-[1,2,4]triazol-4-yl)-piperidin-1-yl]-1-phenyl-butyl}-amide] belongs 4.87 nM; to `Cc1nnc(C(C)C)n1C1CCN([C@@H](C)C[C@H](NC(=O)C2CCC(F)(F)CC2)c2ccccc2)CC1` [4,4-difluoro-N-((1S,3S)-3-(4-(3-isopropyl-5-methyl-4H-1,2,4-triazol-4-yl)piperidin-1-yl)-1-phenylbutyl)cyclohexanecarboxamide], 49.9 nM.
As to `Cc1nnc(C(C)C)n1C1CCN(C(C)C[C@H](NC(=O)COCC(F)(F)F)c2ccccc2)CC1` (mixture of isomers) [(+/-)-N-((1S)-3-(4-(3-isopropyl-5-methyl-4H-1,2,4-triazol-4-yl)piperidin-1-yl)-1-phenylbutyl)-2-(2,2,2-trifluoroethoxy)acetamide], the IC50 worked out at 52.8 nM.
For `CC(=O)N1CCC(C(=O)N[C@@H](CC(C)N2CCC(n3c(C)nnc3C(C)C)CC2)c2ccccc2)CC1` (mixture of isomers) [(+/-)-1-acetyl-N-((1S)-3-(4-(3-isopropyl-5-methyl-4H-1,2,4-triazol-4-yl)piperidin-1-yl)-1-phenylbutyl)piperidine-4-carboxamide], the IC50 was 28.7 nM.
In the case of `COC(=O)N[C@@H](CC(C)N1CCC(n2c(C)nnc2C(C)C)CC1)c1ccccc1` (mixture of isomers) [(+/-)-methyl(1S)-3-(4-(3-isopropyl-5-methyl-4H-1,2,4-triazol-4-yl)piperidin-1-yl)-1-phenylbutylcarbamate], the IC50 came out at 315 nM.
To `Cc1nnc(C(C)C)n1C1CCN(C(C)C[C@H](NC(=O)C(C)C)c2ccccc2)CC1` (mixture of isomers) [(+/-)-N-((1S)-3-(4-(3-isopropyl-5-methyl-4H-1,2,4-triazol-4-yl)piperidin-1-yl)-1-phenylbutyl)isobutyramide] belongs 3.11 nM; to `Cc1nnc(C(C)C)n1C1CCN(C(C)C[C@H](NC(=O)C2CCS(=O)(=O)CC2)c2ccccc2)CC1` (mixture of isomers) [(+/-)-1,1-Dioxo-hexahydro-1lambda*6*-thiopyran-4-carboxylic acid{(S)-3-[4-(3-isopropyl-5-methyl-[1,2,4]triazol-4-yl)-piperidin-1-yl]-1-phenyl-butyl}-amide], 6.12 nM.
In the case of `Cc1nnc(C(C)C)n1C1CCN(C(C)C[C@H](NC(=O)C2CC2)c2ccccc2)CC1` (mixture of isomers) [(+/-)-N-((1S)-3-(4-(3-isopropyl-5-methyl-4H-1,2,4-triazol-4-yl)piperidin-1-yl)-1-phenylbutyl)cyclopropanecarboxamide], the IC50 is 3.93 nM.
`Cc1nnc(C(C)C)n1C1CCN(C(C)C[C@H](NC(=O)N2CCOCC2)c2ccccc2)CC1` (mixture of isomers) [(+/-)-N-((1S)-3-(4-(3-isopropyl-5-methyl-4H-1,2,4-triazol-4-yl)piperidin-1-yl)-1-phenylbutyl)morpholine-4-carboxamide]: the IC50 is 176 nM.
